# In PMC9538324 (Journal of medical virology, 2022):
# Where two headings read alike, the source gives them in different places.
# Legend:
# in vitro = conditions: human
# Omicron PV = format: cell-based, SARS-CoV-2
# SARS-CoV-2 [1] = conditions: Huh7 cells; cited from earlier work
# VSV-G = format: cell-based, Vesicular stomatitis virus
# SARS-CoV-2 [2] = conditions: A549-ACE2 cells, RT-PCR and plaque assay, Institut Pasteur; cited from earlier work
# Vero cells = conditions: cited from earlier work
# A549-ACE2 cells [3] = test: MTT cell viability assay; conditions: 0.63 μM
# SARS-CoV-2 [4] = conditions: Vero cells, anti-NP antibody, Mount Sinai; cited from earlier work
# A549-ACE2 cells [5] = test: cells; conditions: Homo sapiens, A549-ACE2, read-out: EC50 for PLD induction
# SARS-CoV-2 [6] = conditions: Calu-3 cells; cited from earlier work
# Delta PV = format: cell-based, SARS-CoV-2
# rVSV-EBOV = test: microbe, parasite or virus in culture; format: cell-based, Ebola virus; conditions: Zaire ebolavirus, A549-ACE2, read-out: EC50 against rVSV-EBOV
# SARS-CoV-2 [7] = conditions: A549-ACE2 cells; cited from earlier work
# AXL = conditions: read-out: IC50 against AXL; cited from earlier work
# Wuhan PV = format: cell-based, SARS-CoV-2
# SARS-CoV-2 [8] = conditions: Vero cells; cited from earlier work
# [9] = tested on: SARS-CoV-2 (USA-WA1 strain); test: microbe, parasite or virus in culture; format: cell-based; conditions: Severe acute respiratory syndrome coronavirus 2, A549-ACE2, read-out: EC50 against SARS-CoV-2
# A549-ACE2 cells [10] = tested on: A549-ACE2 cells
# A549-ACE2 cells [11] = conditions: A549-ACE2 infection assay
# [12] = A549-ACE2 cells, compared with amodiaquine
structure (smiles),measurement,setting,value
"CCc1nc(C(N)=O)c(Nc2ccc(N3CCC(N4CCN(C)CC4)CC3)c(OC)c2)nc1NC1CCOCC1 [Gilteritinib, gilteritinib]",fold induction,in vitro,15
same,infection inhibition against Omicron PV compared to VSV-G,Omicron PV,significant infection inhibition
same,EC50,SARS-CoV-2 [1],200 nM
same,VSV-G infection relative to the level in imatinib- or nintedanib-treated cells,VSV-G,around 50%
same,EC50,SARS-CoV-2 [2],60 to 120 nM
same,CC50,Vero cells,37200 nM
same,reduction of cell viability by MTT assay,A549-ACE2 cells [3],approximately 30%
same,EC50,SARS-CoV-2 [4],~800 nM
same,EC50,A549-ACE2 cells [5],390 nM
same,anti-SARS-CoV-2 activity,SARS-CoV-2 [6],no detectable activity
same,Delta PV infection compared to VSV-G,Delta PV,small decrease
same,EC50,rVSV-EBOV,250 nM
same,lowest concentration tested showing inhibition of virus replication,SARS-CoV-2 [7],0.5 µM
same,IC50,AXL,41 nM
same,Wuhan PV infection compared to VSV-G,Wuhan PV,small decrease
same,EC50,SARS-CoV-2 [8],6750 nM
same,EC50,[9],~100 nM
same,PLD induction (in words),A549-ACE2 cells [10]; [12],induces a small amount of PLD
"Cc1ccc(NC(=O)c2ccc(CN3CCN(C)CC3)cc2)cc1Nc1nccc(-c2cccnc2)n1 [Imatinib, imatinib]",PLD induction (in words),A549-ACE2 cells [10],strong PLD inducers
"COC(=O)c1ccc2c(c1)NC(=O)/C2=C(\Nc1ccc(N(C)C(=O)CN2CCN(C)CC2)cc1)c1ccccc1 [Nintedanib, nintedanib]",cytotoxicity (in words),A549-ACE2 cells [11],little cytotoxicity
same,PLD induction (in words),A549-ACE2 cells [10]; [12],strong PLD inducers
